Literature values, collected in patent US8679052B2, “Method for accurately determining concentrations of diffusible materials” (priority 2009, dated 2014).

System: red blood cells
Details: red blood cells suspended in buffer; in the first 1-2 minutes

CC(=O)/N=c1/sc(S(N)(=O)=O)nn1C [methazolamide]
decrease of buffer concentration (uptake by red blood cells): 50%
